Measured values from patent US20250215030A1, “STAT MODULATORS AND USES THEREOF” (Recludix Pharma, Inc., priority 2022, published 2025).
pIC50: −log10 of the molar value.

Columns and labels:
pSTAT3 (pY705-STAT3) = molecular target: T1, pSTAT3 (pY705-STAT3) (Homo sapiens, UniProt P40763); assay: MSD-pSTAT-PBMC Assay (pSTAT3, IL-6 stimulated); type: cell-based; settings: PBMC, compound 3 hrs, then 10 ng/mL IL-6 for 10 min; MSD pY705-STAT3; read-out: pSTAT3
T1 construct: host or cells: cryopreserved PBMC
In short: (§1)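 Phospho-STAT levels captured on anti-STAT3 or anti-STAT6 plates and detected with anti-pY705 or anti-pY641 antibodies (MSD read-out). Cryopreserved human PBMCs received compound for 3 h before a 10 min pulse of IL-6 (10 ng/mL, STAT3) or IL-4 (1 ng/mL, STAT6). IC50 fitted after unstimulated-background subtraction and DMSO normalization.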

pSTAT6 (pY641-STAT6) = molecular target: T2, pSTAT6 (pY641-STAT6) (Homo sapiens, UniProt P42226); assay: MSD-pSTAT-PBMC Assay (pSTAT6, IL-4 stimulated); type: cell-based; settings: compound 3 hrs, then 1 ng/mL IL-4 for 10 min
T2 construct: host or cells: cryopreserved PBMC
T2 sequence (P42226 1-847): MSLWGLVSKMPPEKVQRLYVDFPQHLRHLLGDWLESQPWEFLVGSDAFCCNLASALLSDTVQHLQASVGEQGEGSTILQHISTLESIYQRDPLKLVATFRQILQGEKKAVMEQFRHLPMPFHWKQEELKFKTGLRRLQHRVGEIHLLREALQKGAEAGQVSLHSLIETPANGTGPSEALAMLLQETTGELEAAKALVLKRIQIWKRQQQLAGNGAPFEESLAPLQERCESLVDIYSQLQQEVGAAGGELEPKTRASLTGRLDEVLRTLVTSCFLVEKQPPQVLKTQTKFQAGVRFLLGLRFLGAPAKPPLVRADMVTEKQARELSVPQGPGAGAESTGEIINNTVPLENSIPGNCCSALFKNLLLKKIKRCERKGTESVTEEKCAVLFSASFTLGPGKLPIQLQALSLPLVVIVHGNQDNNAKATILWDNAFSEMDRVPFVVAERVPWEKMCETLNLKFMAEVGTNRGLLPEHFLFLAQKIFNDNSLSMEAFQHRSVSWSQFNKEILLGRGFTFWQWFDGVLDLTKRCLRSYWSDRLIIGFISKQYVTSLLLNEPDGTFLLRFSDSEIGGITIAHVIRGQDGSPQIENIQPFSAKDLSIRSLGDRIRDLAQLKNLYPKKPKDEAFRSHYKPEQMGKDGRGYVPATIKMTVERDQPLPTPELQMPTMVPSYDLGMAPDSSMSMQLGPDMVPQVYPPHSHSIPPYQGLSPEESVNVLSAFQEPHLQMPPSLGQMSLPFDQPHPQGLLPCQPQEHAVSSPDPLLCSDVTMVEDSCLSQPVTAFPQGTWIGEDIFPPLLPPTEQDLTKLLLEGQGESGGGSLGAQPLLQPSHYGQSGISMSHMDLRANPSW
In short: as §1

T1 sequence (P40763 whole entry): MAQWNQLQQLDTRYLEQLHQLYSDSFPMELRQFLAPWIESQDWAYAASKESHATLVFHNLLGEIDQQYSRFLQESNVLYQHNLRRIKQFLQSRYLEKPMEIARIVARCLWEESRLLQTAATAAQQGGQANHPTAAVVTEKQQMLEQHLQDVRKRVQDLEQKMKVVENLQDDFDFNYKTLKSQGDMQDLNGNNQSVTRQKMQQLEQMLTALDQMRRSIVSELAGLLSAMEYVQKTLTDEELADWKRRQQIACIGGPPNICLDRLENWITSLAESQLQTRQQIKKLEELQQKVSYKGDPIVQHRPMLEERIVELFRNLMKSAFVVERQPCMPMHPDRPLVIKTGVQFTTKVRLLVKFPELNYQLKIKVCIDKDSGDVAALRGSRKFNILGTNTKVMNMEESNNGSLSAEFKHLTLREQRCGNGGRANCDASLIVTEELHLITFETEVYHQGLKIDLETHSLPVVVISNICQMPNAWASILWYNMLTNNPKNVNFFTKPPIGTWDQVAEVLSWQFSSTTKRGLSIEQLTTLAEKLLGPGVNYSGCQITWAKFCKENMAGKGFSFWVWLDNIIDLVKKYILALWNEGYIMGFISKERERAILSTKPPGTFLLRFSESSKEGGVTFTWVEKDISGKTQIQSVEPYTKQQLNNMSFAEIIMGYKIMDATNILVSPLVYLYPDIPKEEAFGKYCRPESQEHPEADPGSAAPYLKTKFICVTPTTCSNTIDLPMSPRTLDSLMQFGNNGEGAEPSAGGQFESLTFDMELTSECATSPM

SMILES	pIC50 (pSTAT3 (pY705-STAT3))	pIC50 (pSTAT6 (pY641-STAT6))
CC(C)(C)C(=O)OCOP(=O)(OCOC(=O)C(C)(C)C)C(F)(F)c1ccc2sc(C(=O)N[C@H]3C[C@@H]4C[C@@H]4C[C@H]4CC[C@@H](C(=O)N5CC6(CN(C(=O)Cc7ccccc7)C6)C5)N4C3=O)cc2c1 [Compound 210, (((difluoro(2-(((3S,6S,7aS, 8aR,9aR)-5-oxo-3-(6-(2-phenyl-acetyl)-2,6-diazaspiro[3.3]heptane-2-carbonyl)decahydro-1H-cyclopropa[d]pyrrolo[1,2-a]azocin-6-yl)carbamoyl)benzo[b]thiophen-5-yl)methyl)phosphoryl)bis(oxy)) bis(methylene) bis(2,2-dimethyl-propanoate)]	> 7.00	6.00 to 7.00
CC(C)(C)C(=O)OCOP(=O)(OCOC(=O)C(C)(C)C)C(F)(F)c1ccc2sc(C(=O)N[C@H]3C[C@@H]4C[C@@H]4C[C@H]4CC[C@@H](C(=O)N5CCN(C(=O)c6cn[nH]c6)CC5)N4C3=O)cc2c1 [Compound 211, ((((2-(((3S,6S,7aS, 8aR,9aR)-3-(4-(1H-pyrazole-4-carbonyl)piperazine-1-carbonyl)-5-oxodecahydro-1H-cyclopropa[d]pyrrolo[1,2-a]azocin-6-yl)carbamoyl)benzo[b]thiophen-5-yl)difluoromethyl)phosphoryl)bis(oxy)) bis(methylene) bis(2,2-dimethyl-propanoate)]	6.00 to 7.00	< 5.52
CC(C)(C)C(=O)OCOP(=O)(OCOC(=O)C(C)(C)C)C(F)(F)c1ccc2sc(C(=O)N[C@H]3C[C@@H]4C[C@@H]4C[C@H]4CC[C@@H](C(=O)N[C@@H]5CCN(c6cccnc6)C5)N4C3=O)cc2c1 [Compound 212, (((difluoro(2-(((3S,6S,7aS, 8aR,9aR)-5-oxo-3-(((R)-1-(pyridin-3-yl)pyrrolidin-3-yl)carbamoyl)decahydro-1H-cyclopropa[d]pyrrolo[1,2-a]azocin-6-yl)carbamoyl)benzo[b]thiophen-5-yl)methyl)phosphoryl)bis(oxy)) bis(methylene) bis(2,2-dimethyl-propanoate)]	> 7.00	< 5.52
CC(C)(C)C(=O)OCOP(=O)(OCOC(=O)C(C)(C)C)C(F)(F)c1ccc2sc(C(=O)N[C@H]3C[C@H]4C[C@H]4C[C@H]4CC[C@@H](C(=O)N[C@@H]5CCN(c6cccnc6)C5)N4C3=O)cc2c1 [Compound 213, (((difluoro(2-(((3S,6S,7aR, 8aS,9aR)-5-oxo-3-(((R)-1-(pyridin-3-yl)pyrrolidin-3-yl)carbamoyl)decahydro-1H-cyclopropa[d]pyrrolo[1,2-a]azocin-6-yl)carbamoyl)benzo[b]thiophen-5-yl)methyl)phosphoryl)bis(oxy)) bis(methylene) bis(2,2-dimethyl-propanoate)]	6.00 to 7.00	< 5.52
CC(C)(C)C(=O)OCOP(=O)(OCOC(=O)C(C)(C)C)C(F)(F)c1ccc2sc(C(=O)N[C@H]3C[C@H]4C[C@H]4C[C@H]4CC[C@@H](C(=O)N5CC(n6ccnc6)C5)N4C3=O)cc2c1 [Compound 214, ((((2-(((3S,6S,7aR, 8aS,9aR)-3-(3-(1H-imidazol-1-yl)azetidine-1-carbonyl)-5-oxodecahydro-1H-cyclopropa[d]pyrrolo[1,2-a]azocin-6-yl)carbamoyl)benzo[b]thiophen-5-yl)difluoromethyl)phosphoryl)bis(oxy)) bis(methylene) bis(2,2-dimethyl-propanoate)]	> 7.00	< 5.52
CC(C)(C)C(=O)OCOP(=O)(OCOC(=O)C(C)(C)C)C(F)(F)c1ccc2sc(C(=O)N[C@H]3C[C@H]4C[C@H]4C[C@H]4CC[C@@H](C(=O)NC5CN(C(=O)CCC(F)(F)F)C5)N4C3=O)cc2c1 [Compound 215, (((difluoro(2-(((3S,6S,7aR, 8aS,9aR)-5-oxo-3-((1-(4,4,4-trifluoro-butanoyl)azetidin-3-yl)carbamoyl)decahydro-1H-cyclopropa[d]pyrrolo[1,2-a]azocin-6-yl)carbamoyl)benzo[b]thiophen-5-yl)methyl)phosphoryl)bis(oxy)) bis(methylene) bis(2,2-dimethyl-propanoate)]	> 7.00	6.00 to 7.00
CC(C)(C)C(=O)SCCOP(=O)(OCCSC(=O)C(C)(C)C)C(F)(F)c1ccc2sc(C(=O)N[C@H]3C[C@H]4C[C@H]4C[C@H]4CC[C@@H](C(=O)N5CC(c6ccccn6)C5)N4C3=O)cc2c1 [Compound 218, S,S′-((((difluoro(2-(((3S,6S,7aR, 8aS,9aR)-5-oxo-3-(3-(pyridin-2-yl)azetidine-1-carbonyl)decahydro-1H-cyclopropa[d]pyrrolo[1,2-a]azocin-6-yl)carbamoyl)benzo [b]thiophen-5-yl)methyl)phosphoryl)bis(oxy))bis(ethane-2,1-diyl)) bis(2,2-dimethyl-propanethioate)]	> 7.00	< 5.52
CC(C)(C)C(=O)SCCOP(=O)(OCCSC(=O)C(C)(C)C)C(F)(F)c1ccc2sc(C(=O)N[C@H]3C[C@H]4C[C@H]4C[C@H]4CC[C@@H](C(=O)N5CC(c6c[nH]cn6)C5)N4C3=O)cc2c1 [Compound 219, S,S′-(((((2-(((3S,6S,7aR, 8aS,9aR)-3-(3-(1H-imidazol-4-yl)azetidine-1-carbonyl)-5-oxodecahydro-1H-cyclopropa[d]pyrrolo[1,2-a]azocin-6-yl)carbamoyl)benzo[b]thiophen-5-yl)difluoromethyl)phosphoryl)bis(oxy))bis(ethane-2,1-diyl)) bis(2,2-dimethyl-propanethioate)]	> 7.00	6.00 to 7.00
CC(C)(C)C(=O)SCCOP(=O)(OCCSC(=O)C(C)(C)C)C(F)(F)c1ccc2sc(C(=O)N[C@H]3C[C@H]4C[C@H]4C[C@H]4CC[C@@H](C(=O)N5CCN(C6CCOCC6)CC5)N4C3=O)cc2c1 [Compound 220, S,S′-((((difluoro(2-(((3S,6S,7aR, 8aS,9aR)-5-oxo-3-(4-(tetrahydro-2H-pyran-4-yl)piperazine-1-carbonyl)decahydro-1H-cyclopropa[d]pyrrolo[1,2-a]azocin-6-yl)carbamoyl)benzo[b]thiophen-5-yl)methyl)phosphoryl)bis(oxy))bis(ethane-2,1-diyl)) bis(2,2-dimethyl-propanethioate)]	> 7.00	< 5.52
CC(C)CC(=O)SCCOP(=O)(OCCSC(=O)CC(C)C)C(F)(F)c1ccc2sc(C(=O)N[C@H]3C[C@H]4C[C@H]4C[C@H]4CC[C@@H](C(=O)N5CC(c6cncnc6)C5)N4C3=O)cc2c1 [Compound 222, S,S′-((((difluoro(2-(((3S,6S,7aR, 8aS,9aR)-5-oxo-3-(3-(pyrimidin-5-yl)azetidine-1-carbonyl)decahydro-1H-cyclopropa[d]pyrrolo[1,2-a]azocin-6-yl)carbamoyl)benzo[b]thiophen-5-yl)methyl)phosphoryl)bis(oxy))bis(ethane-2,1-diyl)) bis(3-methylbutane thioate)]	> 7.00	< 5.52
CC(C)(C)C(=O)SCCOP(=O)(Cc1ccc2sc(C(=O)N[C@H]3C[C@H]4C[C@H]4C[C@H]4CC[C@@H](C(=O)N5CC(c6cccnc6)C5)N4C3=O)cc2c1)OCCSC(=O)C(C)(C)C [Compound 223, S,S′-(((((2-(((3S,6S,7aR, 8aS,9aR)-5-oxo-3-(3-(pyridin-3-yl)azetidine-1-carbonyl)decahydro-1H-cyclopropa[d]pyrrolo[1,2-a]azocin-6-yl)carbamoyl)benzo[b]thiophen-5-yl)methyl)phosphoryl)bis(oxy))bis(ethane-2,1-diyl)) bis(2,2-dimethyl-propanethioate)]	6.00 to 7.00	< 5.52
CC(C)CC(=O)SCCOP(=O)(OCCSC(=O)CC(C)C)C(F)(F)c1ccc2sc(C(=O)N[C@H]3C[C@H]4C[C@H]4C[C@H]4CC[C@@H](C(=O)N[C@@H]5CCN(c6cccnc6)C5)N4C3=O)cc2c1 [Compound 224, S,S′-((((difluoro(2-(((3S,6S,7aR, 8aS,9aR)-5-oxo-3-(((R)-1-(pyridin-3-yl)pyrrolidin-3-yl)carbamoyl)decahydro-1H-cyclopropa[d]pyrrolo[1,2-a]azocin-6-yl)carbamoyl)benzo[b]thiophen-5-yl)methyl)phosphoryl)bis(oxy))bis(ethane-2,1-diyl)) bis(3-methylbutane thioate)]	> 7.00	< 5.52
